Read-outs that look alike come from different tables or passages of the source.
Tests used:
HePG2 cell line = experiment: In vitro antitumor MTT assay, HePG2; type: cell-based
Description: (§1) The antitumor activity was performed by using the tetrazolium salt 3-(4,5-dimethyl-2-thiazolyl)-2,5-diphenyl-2H-tetrazolium bromide (MTT) assay in accordance with an established method.
(§2) Compounds 3a–c, 4a,b, 5a,b, 6a,b, 7a–e, 8, 9a–c, 10, 11, 12a–c, 13, and 14 were screened for their in vitro antitumor activity by using the standard 3-(4,5-dimethylthiazol-2-yl)-2,5-diphenyltetrazolium bromide (MTT) assay against five human cancers: HePG2, HCT-116, MCF-7, PC3, and HeLa cell lines. […].

HCT-116 cell line = experiment: In vitro antitumor MTT assay, HCT-116; type: cell-based
Description: (§3) The antitumor activity was performed by using the tetrazolium salt 3-(4,5-dimethyl-2-thiazolyl)-2,5-diphenyl-2H-tetrazolium bromide (MTT) assay in accordance with an established method[39].

MCF-7 cell line = experiment: In vitro antitumor MTT assay, MCF-7; type: cell-based
Description: as §3

PC3 cell line = experiment: In vitro antitumor MTT assay, PC3; type: cell-based
Description: as §3

HeLa cell line = experiment: In vitro antitumor MTT assay, HeLa; type: cell-based
Description: as §1, §2

[1] = system: HePG2, HCT-116, MCF-7, PC3, and HeLa cell lines; experiment: In vitro antitumor MTT assay, panel of five human cancer cell lines (text summaries); type: cell-based; details: for IC50: read-out: IC50, antitumor activity, range over the tested cancer cell lines
Description: as §1, §2

[2] = Homo sapiens, HepG2; read-out: IC50 (µM) HePG2
[3] = Homo sapiens, HCT-116; read-out: IC50 (µM) HCT-116
[4] = Homo sapiens, MCF7; read-out: IC50 (µM) MCF-7
[5] = Homo sapiens, PC-3; read-out: IC50 (µM) PC3
[6] = Homo sapiens; read-out: IC50 (µM) HeLa
[7] = Homo sapiens, range over (all or some of) HePG2, HCT-116, MCF-7, PC3, HeLa
[8] = Homo sapiens, HepG2, read-out: IC50 (µM) HePG2
[9] = Homo sapiens, HCT-116, read-out: IC50 (µM) HCT-116
[10] = Homo sapiens, MCF7, read-out: IC50 (µM) MCF-7
[11] = Homo sapiens, PC-3, read-out: IC50 (µM) PC3
[12] = Homo sapiens, read-out: IC50 (µM) HeLa

Row | IC50 (HePG2 cell line; [2]) | IC50 (HCT-116 cell line; [3]) | IC50 (MCF-7 cell line; [4]) | IC50 (PC3 cell line; [5]) | IC50 (HeLa cell line; [6]) | IC50 [1, 7] | melting point | IC50 ([1]; range over (all or some of) HePG2, HCT-116, MCF-7, PC3, HeLa) | SMILES | IC50 (HePG2 cell line; [8]) | IC50 (HCT-116 cell line; [9]) | IC50 (MCF-7 cell line; [10]) | IC50 (PC3 cell line; [11]) | IC50 (HeLa cell line; [12]) | IC50 ([1]; Homo sapiens) | antitumor activity against the tested cancer cell lines (in words) ([1]; all tested cancer cell lines)
1 | 18.5 ± 1.7 µM | 30.5 ± 1.8 µM | 28.6 ± 1.6 µM | 27.4 ± 2.1 µM | 19.1 ± 1.7 µM | 18.5 to 30.5 µM | 230 to 232 °C |  | COc1ccc(C2NC(=O)NC3=C2C(=O)CC(C)(C)C3)cc1OC1CCCC1 (stereo not shown) [Compound 6a, 4-(3-(Cyclopentyloxy)-4-methoxyphenyl)-7,7-dimethyl-4,6,7,8-tetrahydroquinazoline-2,5(1H,3H)-dione] |  |  |  |  |  |  | 
2 | 16.1 ± 1.4 µM | 25.4 ± 1.7 µM | 10.3 ± 1.1 µM | 17.9 ± 1.6 µM | 13.5 ± 1.4 µM | 10.3 to 25.4 µM | 233 to 235 °C |  | COc1ccc(C2NC(=S)NC3=C2C(=O)CC(C)(C)C3)cc1OC1CCCC1 (stereo not shown) [Compound 6b, 4-(3-(Cyclopentyloxy)-4-methoxyphenyl)-7,7-dimethyl-2-thioxo-2,3,4,6,7,8-hexahydroquinazolin-5(1H)-one] |  |  |  |  |  |  | 
3 | 32.9 ± 2.3 µM | 48.1 ± 2.4 µM | 35.2 ± 1.9 µM | 29.2 ± 2.3 µM | 37.5 ± 2.5 µM | 29.2 to 48.1 µM | 190 to 192 °C |  | COc1ccc(C(=S)N2CCOCC2)cc1OC1CCCC1 [Compound 9a, (3-(Cyclopentyloxy)-4-methoxyphenyl)(morpholino)methanethione] |  |  |  |  |  |  | 
4 | 24.9 ± 1.9 µM | 39.1 ± 2.2 µM | 37.1 ± 2 µM | 31.5 ± 2.4 µM | 28.4 ± 2.3 µM | 24.9 to 39.1 µM | 193 to 195 °C |  | COc1ccc(C(=S)N2CCCCC2)cc1OC1CCCC1 [Compound 9b, (3-(Cyclopentyloxy)-4-methoxyphenyl)(piperidin-1-yl)methanethione] |  |  |  |  |  |  | 
5 | 36.3 ± 2.5 µM | 52.9 ± 2.7 µM | 48.9 ± 2.3 µM | 33.4 ± 2.6 µM | 40.6 ± 2.8 µM | 33.4 to 52.9 µM | 191 to 193 °C |  | COc1ccc(C(=S)N2CCN(C(=O)OC(C)(C)C)CC2)cc1OC1CCCC1 [Compound 9c, tert-Butyl 4-(3-(cyclopentyloxy)-4-methoxyphenylcarbonothioyl)piperazine-1-carboxylate] |  |  |  |  |  |  | 
6 | 45.2 ± 3.4 µM | 76 ± 3.6 µM | 71.6 ± 3.9 µM | 79.8 ± 4 µM | 65.7 ± 4.1 µM |  | > 300 °C |  | COc1ccc(-c2cc(-c3ccccc3)[nH]c(=O)c2C#N)cc1OC1CCCC1 [Compound 12a, 4-(3-(Cyclopentyloxy)-4-methoxyphenyl)-2-oxo-6-phenyl-1,2-dihydropyridine-3-carbonitrile] |  |  |  |  |  |  | 
7 | 38.1 ± 2.8 µM | 67.7 ± 3.5 µM | 58.3 ± 2.7 µM | 61.5 ± 3.3 µM | 45.7 ± 3.2 µM |  | > 300 °C |  | COc1ccc(-c2cc(-c3ccc(C)cc3)[nH]c(=O)c2C#N)cc1OC1CCCC1 [Compound 12b, 4-(3-(cyclopentyloxy)-4-methoxyphenyl)-2-oxo-6-(p-tolyl)-1,2-dihydropyridine-3-carbonitrile] |  |  |  |  |  |  | 
8 | 59.6 ± 4 µM | 83.4 ± 4.3 µM | 66.1 ± 3.7 µM | 73.5 ± 3.8 µM | 62.8 ± 3.9 µM |  | > 300 °C |  | COc1ccc(-c2cc(-c3ccc(Cl)c(Cl)c3)[nH]c(=O)c2C#N)cc1OC1CCCC1 [Compound 12c, 4-(3-(Cyclopentyloxy)-4-methoxyphenyl)-6-(3,4-dichlorophenyl)-2-oxo-1,2-dihydropyridine-3-carbonitrile] |  |  |  |  |  |  | 

The next lines start with the compound.

Row | SMILES | IC50 (HePG2 cell line; [2]) | IC50 (HCT-116 cell line; [3]) | IC50 (MCF-7 cell line; [4]) | IC50 (PC3 cell line; [5]) | IC50 (HeLa cell line; [6]) | IC50 [1, 7] | melting point | IC50 ([1]; range over (all or some of) HePG2, HCT-116, MCF-7, PC3, HeLa) | IC50 (HePG2 cell line; [8]) | IC50 (HCT-116 cell line; [9]) | IC50 (MCF-7 cell line; [10]) | IC50 (PC3 cell line; [11]) | IC50 (HeLa cell line; [12]) | IC50 ([1]; Homo sapiens) | antitumor activity against the tested cancer cell lines (in words) ([1]; all tested cancer cell lines)
9 | CN(C)C/C=C/C(=O)Nc1cc2c(Nc3ccc(F)c(Cl)c3)ncnc2cc1O[C@H]1CCOC1 [Afatinib, afatinib, reference compound] | 5.4 ± 0.25 µM | 11.4 ± 1.26 µM | 7.1 ± 0.49 µM | 7.7 ± 0.57 µM | 6.2 ± 0.67 µM | 5.4 to 11.4 µM |  |  |  |  |  |  |  |  | 
10 | COc1ccc(C=C2CCCC2=O)cc1OC1CCCC1 [Compound 3a, 2-(3-(Cyclopentyloxy)-4-methoxybenzylidene)cyclopentanone] | 96 ± 5.2 µM | > 100 µM | 56.1 ± 2.6 µM | 51.4 ± 3 µM | 59.1 ± 3.8 µM |  |  |  |  |  |  |  |  |  | 
11 | COc1ccc(C=C2CCCCC2=O)cc1OC1CCCC1 [Compound 3b, 2-(3-(Cyclopentyloxy)-4-methoxybenzylidene)cyclohexanone] | 53.9 ± 3.7 µM | 80.6 ± 3.9 µM | 23.8 ± 1.5 µM | 19.3 ± 1.8 µM | 26.1 ± 1.9 µM |  | 245 to 247 °C |  |  |  |  |  |  |  | 
12 | COc1ccc(C=C2CCCCCC2=O)cc1OC1CCCC1 [Compound 3c, 2-(3-(Cyclopentyloxy)-4-methoxybenzylidene)cycloheptanone] | 86.9 ± 4.5 µM | 93.5 ± 5.1 µM | > 100 µM | > 100 µM | 81.7 ± 4.7 µM |  | 250 to 252 °C |  |  |  |  |  |  |  | 
13 | COc1ccc(C2NC(=S)NC3=C2CCCC3)cc1OC1CCCC1 (stereo not shown) [Compound 5a, 4-(3-(Cyclopentyloxy)-4-methoxyphenyl)-3,4,5,6,7,8-hexahydroquinazoline-2(1H)-thione] | 73.4 ± 3.7 µM | 66.5 ± 3.8 µM | 92.4 ± 5.2 µM | 79 ± 4.1 µM | 84.3 ± 4.6 µM |  | 199 to 201 °C |  |  |  |  |  |  |  | 
14 | COc1ccc(C2NC(=S)NC3=C2CCCCC3)cc1OC1CCCC1 (stereo not shown) [Compound 5b, 4-(3-(Cyclopentyloxy)-4-methoxyphenyl)-1,3,4,5,6,7,8,9-octahydro-2H-cyclohepta[d]pyrimidine-2-thione] | 59.1 ± 3.5 µM | 61.1 ± 3.6 µM | 81.2 ± 4.3 µM | 55.2 ± 3.1 µM | 46.3 ± 3 µM |  |  |  |  |  |  |  |  |  | 
15 | COc1ccc(-c2nc3c4ccccc4c4ccccc4c3[nH]2)cc1OC1CCCC1 [Compound 7a, 2-(3-(Cyclopentyloxy)-4-methoxyphenyl)-1H-phenanthro[9,10-d]imidazole] |  |  |  |  |  |  | 290 to 292 °C |  | 78.2 ± 4.4 µM | 90.3 ± 4.9 µM | 89.8 ± 4.3 µM | > 100 µM | 77.6 ± 4.6 µM | 53.2 to 90.3 µM | 
16 | COc1ccc(-c2nc3c4ccccc4c4ccccc4c3n2-c2ccc(C)cc2)cc1OC1CCCC1 [Compound 7c, 2-(3-(Cyclopentyloxy)-4-methoxyphenyl)-1-(4-methylphenyl)-1H-phenanthro[9,10-d]imidazole] |  |  |  |  |  |  | 291 to 294 °C |  | 57.1 ± 3.9 µM | 81.2 ± 4.2 µM | 65.3 ± 3.4 µM | 68.1 ± 3.5 µM | 53.2 ± 3.7 µM | 53.2 to 90.3 µM | 
17 | COc1ccc(-c2nc3c4ccccc4c4ccccc4c3n2-c2ccc(F)cc2)cc1OC1CCCC1 [Compound 7d, 2-(3-(Cyclopentyloxy)-4-methoxyphenyl)-1-(4-fluorophenyl)-1H-phenanthro[9,10-d]imidazole] |  |  |  |  |  |  | 290 to 292 °C |  | > 100 µM | > 100 µM | > 100 µM | > 100 µM | > 100 µM |  | no antitumor activity
18 | COc1ccc(-c2nc3c4ccccc4c4ccccc4c3n2-c2ccc(Cl)cc2)cc1OC1CCCC1 [Compound 7e, 2-(3-(Cyclopentyloxy)-4-methoxyphenyl)-1-(4-chlorophenyl)-1H-phenanthro[9,10-d]imidazole] |  |  |  |  |  |  | 294 to 296 °C |  | 29.9 ± 2.1 µM | 44.8 ± 2.3 µM | 42.4 ± 2.2 µM | 47 ± 2.7 µM | 38.1 ± 2.5 µM | 29.8 to 47 µM | 
19 | COc1ccc(C2C3=C(CC(C)(C)CC3=O)NC3=C2C(=O)CC(C)(C)C3)cc1OC1CCCC1 [Compound 8, 9-(3-(Cyclopentyloxy)-4-methoxyphenyl)-3,3,6,6-tetramethyl-3,4,6,7,9,10-hexahydroacridine-1,8(2H,5H)-dione] | 41.8 ± 3 µM | 70.5 ± 3.5 µM | 60.5 ± 2.8 µM | 55.8 ± 3.2 µM | 43.5 ± 2.9 µM | 29.8 to 47 µM | 286 to 287 °C | 41.8 to 70.5 µM |  |  |  |  |  |  | 
20 | COc1ccc(C(=S)Nc2ccc(F)cc2)cc1OC1CCCC1 [Compound 10, 3-(Cyclopentyloxy)-N-(4-fluorophenyl)-4-methoxybenzothioamide] | 49.9 ± 3.5 µM | 79.1 ± 3.8 µM | 64.1 ± 3.1 µM | 47.3 ± 2.9 µM | 52.5 ± 3.7 µM | 47.3 to 79.1 µM | 194 to 196 °C |  |  |  |  |  |  |  | 
21 | COc1ccc(C(=S)N(C)C)cc1OC1CCCC1 [Compound 11, 3-(Cyclopentyloxy)-4-methoxy-N,N-dimethylbenzothioamide] | 91.2 ± 4.8 µM | 96.8 ± 5.5 µM | 94.3 ± 4.7 µM | 88.6 ± 5 µM | 90.9 ± 4.9 µM | 88.6 to 96.8 µM | 189 to 191 °C |  |  |  |  |  |  |  | 
22 | COc1ccc(-c2nc3n(c(=O)c2C#N)C(=O)CS3)cc1OC1CCCC1 [Compound 14, 7-(3-(Cyclopentyloxy)-4-methoxyphenyl)-3,5-dioxo-2,3-dihydro-5H-thiazolo[3,2-a]pyrimidine-6-carbonitrile] | 20.1 ± 1.8 µM | 34.9 ± 1.9 µM | 9.62 ± 0.9 µM | 15.3 ± 1.3 µM | 12.5 ± 1.2 µM | 5.86 to 20.1 µM | 265 to 267 °C |  |  |  |  |  |  |  | 
23 | COc1cccc2c1C(=O)c1c(O)c3c(c(O)c1C2=O)C[C@@](O)(C(=O)CO)C[C@@H]3O[C@H]1C[C@H](N)[C@H](O)[C@H](C)O1 [DOX, doxorubicin, reference compound] |  |  |  |  |  | 4.17 to 8.87 µM |  |  |  |  |  |  |  |  | 

— PMC7144195, “Synthesis, antitumor activity, and molecular docking study of 2-cyclopentyloxyanisole derivatives: mechanistic study of enzyme inhibition” (Journal of Enzyme Inhibition and Medicinal Chemistry, 2020)
